Assay results from patent US11167006B2 (Shanghai Tianci Life Science Development Co., Ltd., priority 2016, dated 2021).
Square brackets hold non-standard residues; d marks the D form. Peptide text beside a SMILES is read from it. NMeY = CN[C@@H](Cc1ccc(O)cc1)C(=O)O; NMeF = CN[C@@H](Cc1ccccc1)C(=O)O

test system: acute pain caused by photothermal therapy in male mice of Kunming strain; assay: Mouse photothermal tail flick analgesia experiment; format: in vivo; conditions: lateral ventricle injection
Method: After the drug was injected into the lateral ventricle, intrathecal, subcutaneous, and intraperitoneal, the modulating activity on pain was measured by the photothermal tail flick test in mouse.
In the lateral ventricle administration, the lateral ventricle tube-buried surgery of the mouse should be performed in advance to ensure the accuracy of the drug injection site. A brain stereotaxic instrument was used in the lateral ventricle tube-buried surgery of the mouse. Male mice of Kunming strain, weighing 21±2 g; brain stereotaxic instrument is Jiangwan I. After the mice were anesthetized with sodium pentobarbital (i.p., 80 mg/kg mouse body weight), the hair in the head surgery area of the mouse was cut off and the mouse was placed on the brain stereotactic instrument and fixed. The surgery area was disinfected with iodophor, the scalp was opened along the sagittal suture to reveal the skull and the position of the anterior fontanelle can be found. 3 mm backward and 1 mm left/right from the anterior fontanelle, the upper position of the lateral ventricle can be found. A self-made stainless steel tube (a section of 24-gauge, which is connected to a small section of PE-10 tube) is inserted 3 mm downward according to the above position, which is the lateral ventricle. A section of stainless steel string (28-gauge) is inserted into the above-mentioned steel tube to prevent cerebrospinal fluid spillage and foreign matter infection and block the steel pipe. The steel tube is fixed with medical dental powder and glue, and after solidification, the wound is sutured. After the surgery, the mice were recovered tier 4 days, and the follow-up experiment was started on the 5th day. Surgical instruments, stainless steel tubes, etc. involved in the experiment need to be disinfected before the surgery. The mouse lateral ventricle was injected with 4 μl of the drug each time, and then the steel tube was rinsed with 1 μl of physiological saline.
Spinal cord level administration is performed by intrathecal injection in conscious mice, and the specific procedure is described in the method reported by Hylden and Wilcox (Eur. J. Pharmacol. 1980, 67: 313). A 25 μL microinjector was inserted directly into the subarachnoid space between L5 and L6.
The intraperitoneal administration was directly injected using a 1 mL syringe at an injection volume of 10 μl/g body weight. At the time of injection, the mouse was held by left hand with their abdomen facing up and the head was at low position while the tail was at high position. The side of the midline of the abdomen was taken, the needle hole of the syringe was upward, the needle tip penetrates into the skin in a direction less than 20 degrees, the needle tip was slightly pushed in the direction of the mouse head and sticking abdominal wall, and then punctures into the abdominal cavity in the direction of 45 degrees, and was withdrawn to confirm that it has not been pierced into the blood vessel or the intestine, afterwards the drug solution is slowly pushed out.
Subcutaneous injection was also administered directly using a 1 mL syringe in an injection volume of 10 μl/g body weight. At the time of injection, the neck and tail of the mouse were fixed in the left hand, and the head and body were inclined downward at 45 degrees. The needle hole of the syringe is upward, the needle tip is slowly pierced into the skin on the right side of the back center line at an angle of less than 20 degrees, and the needle tip is lightly picked up to confirm that there is no piercing, afterwards the drug solution is slowly pushed out.
Male mice of Kunming strain were used to detect the effects of drugs on pain perception using a photothermal tail flick instrument. The ambient temperature is controlled at 22±1° C., and the experimental animals are free to eat and drink. The basic tail flick incubation period (3-5 seconds) was determined prior to administration, and mice that were too sensitive or dull were discarded. […]

| SMILES | ED50 value (nmol) (95% confidence interval), analgesic activity |
| --- | --- |
| CN[C@@H](Cc1ccc(O)cc1)C(=O)N[C@H](C)C(=O)NCC(=O)N[C@@H](Cc1ccccc1)C(=O)N[C@@H](CCC(N)=O)C(=O)N1CCC[C@H]1C(=O)N[C@@H](CCC(N)=O)C(=O)N[C@@H](CCCNC(=N)N)C(=O)N[C@@H](Cc1ccccc1)C(N)=O [Compound 1] (H-[NMeY][dA]GFQPQRF-NH2) | 1.2980 (1.2000 to 1.4050) nmol |
| C[C@@H](NC(=O)[C@@H](N)Cc1ccc(O)cc1)C(=O)NCC(=O)N(C)[C@@H](Cc1ccccc1)C(=O)N[C@@H](CCC(N)=O)C(=O)N1CCC[C@H]1C(=O)N[C@@H](CCC(N)=O)C(=O)N[C@@H](CCCNC(=N)N)C(=O)N[C@@H](Cc1ccccc1)C(N)=O [Compound 2, Tyr-D-Ala-Gly-NMe-Phe-Gln-Pro-Gln-Arg-Phe-NH2] (H-Y[dA]G[NMeF]QPQRF-NH2) | 0.3862 (0.3590 to 0.4154) nmol |
| C[C@@H](NC(=O)[C@@H](N)Cc1ccc(O)cc1)C(=O)NCC(=O)N[C@@H](Cc1ccccc1)C(=O)NCC(=O)N1CCC[C@H]1C(=O)N[C@@H](CCC(N)=O)C(=O)N[C@@H](CCCNC(=N)N)C(=O)N[C@@H](Cc1ccccc1)C(N)=O [Compound 3] (H-Y[dA]GFGPQRF-NH2) | 0.4172 (0.3798 to 0.4583) nmol |
| CC(C)C[C@H](NC(=O)[C@H](Cc1ccccc1)NC(=O)CNC(=O)[C@@H](C)NC(=O)[C@@H](N)Cc1ccc(O)cc1)C(=O)N1CCC[C@H]1C(=O)N[C@@H](CCC(N)=O)C(=O)N[C@@H](CCCNC(=N)N)C(=O)N[C@@H](Cc1ccccc1)C(N)=O [Compound 4] (H-Y[dA]GFLPQRF-NH2) | 0.1865 (0.1509 to 0.2304) nmol |
| CSCC[C@H](NC(=O)[C@H](Cc1ccccc1)NC(=O)CNC(=O)[C@@H](C)NC(=O)[C@@H](N)Cc1ccc(O)cc1)C(=O)N1CCC[C@H]1C(=O)N[C@@H](CCC(N)=O)C(=O)N[C@@H](CCCNC(=N)N)C(=O)N[C@@H](Cc1ccccc1)C(N)=O [Compound 5] (H-Y[dA]GFMPQRF-NH2) | 0.2957 (0.2637 to 0.3338) nmol |
| CSCC[C@@H](NC(=O)[C@H](Cc1ccccc1)NC(=O)CNC(=O)[C@@H](C)NC(=O)[C@@H](N)Cc1ccc(O)cc1)C(=O)N1CCC[C@H]1C(=O)N[C@@H](CCC(N)=O)C(=O)N[C@@H](CCCNC(=N)N)C(=O)N[C@@H](Cc1ccccc1)C(N)=O [Compound 6, Tyr-D-Ala-Gly-Phe-D-Met-Pro-Gln-Arg-Phe-NH2] (H-Y[dA]GF[dM]PQRF-NH2) | 0.3986 (0.3716 to 0.4275) nmol |
| CC(C)C[C@@H](NC(=O)[C@H](Cc1ccccc1)NC(=O)CNC(=O)[C@@H](C)NC(=O)[C@@H](N)Cc1ccc(O)cc1)C(=O)N1CCC[C@H]1C(=O)N[C@@H](CCC(N)=O)C(=O)N[C@@H](CCCNC(=N)N)C(=O)N[C@@H](Cc1ccccc1)C(N)=O [Compound 7, Tyr-D-Ala-Gly-Phe-D-Leu-Pro-Gln-Arg-Phe-NH2] (H-Y[dA]GF[dL]PQRF-NH2) | 0.4367 (0.3865 to 0.4934) nmol |
| C[C@@H](NC(=O)[C@@H](N)Cc1ccc(O)cc1)C(=O)NCC(=O)N[C@@H](Cc1ccccc1)C(=O)N[C@H](C)C(=O)N1CCC[C@H]1C(=O)N[C@@H](CCC(N)=O)C(=O)N[C@@H](CCCNC(=N)N)C(=O)N[C@@H](Cc1ccccc1)C(N)=O [Compound 8, Tyr-D-Ala-Gly-Phe-D-Ala-Pro-Gln-Arg-Phe-NH2] (H-Y[dA]GF[dA]PQRF-NH2) | 0.3361 (0.2864 to 0.3944) nmol |
